Measurements from patent publication US12274684B2, “Treatment of vasculopathy with prostacyclin and mesenchymal stem cells” (United Therapeutics Corporation, priority 2013, dated 2025).
Where “and” joins values, the source holds several entries; their conditions need not be identical. Equal values may be shown once.

System: human bone marrow MSC
Assay: Microarray gene expression analysis of MSC (Illumina Human HT12 Expression BeadChip)
Assay type: cell-based
Details: Tre(+) 250 μg/mL, 24 h
Procedure: Human bone marrow MSC were expanded and seeded into six (6) T225 flasks using standard growth medium (Table 1). At 95-99% confluency, cells were thoroughly washed with PBS. Three (3) flasks were replenished with basal media containing 250 μg/mL treprostinil, (+)Tre, and the remaining three (3) flasks were replenished with unsupplemented basal media, (−)Tre. After 24 hours of culture, representative images were captured from (+) Tre and (−) Tre cultures. Conditioned media was collected from each replicate, divided into two samples of appropriate volumes, and analyzed separately for: 1) secreted proteins (Myriad RBM InflammationMAP® 1.0) and 2) exosome RNA content. Cells were lysed directly from culture flasks, processed for total RNA isolation, and analyzed for gene expression by microarray (Illumina Human HT12 Expression BeadChip). Microarray gene expression analysis was also performed on MSC from cultures without (−) or with (+) 250 ug/mL treprostinil. Three (3) biological replicates from each condition were analyzed. Of the 77,612 sequences identified among all replicates, only 24,273 were detected above the arbitrary background of 50 counts. 2,984 RNA sequences were unique to Tre(−) cultures, while 1,781 RNA sequences were unique to Tre(+) cultures (panel A). Genes detected in both conditions were further analyzed for differential expression (panel). […] Genes that are expressed only in Tre(−) cultures (that is to say, completely turned off in the Tre(+) cultures) are shown in Table 5.

CCCCC[C@H](O)CC[C@@H]1[C@H]2Cc3cccc(OCC(=O)O)c3C[C@H]2C[C@H]1O [treprostinil]
SLC14A1 (NM_015865) expression, Rep 1-3 (Table 4): 95 counts and 102 counts and 67 counts
SLC16A6 (NM_004694) expression, Rep 1-3: 975 counts and 1342 counts and 784 counts
SREBF1 (NM_004176) expression, Rep 1-3: 1709 counts and 1842 counts and 1577 counts
ST6GALNAC6 (NM_013443) expression, Rep 1-3: 424 counts and 651 counts and 445 counts
TRH (NM_007117) expression, Rep 1-3: 419 counts and 697 counts and 428 counts
VEGFA (NM_001025370) expression, Rep 1-3: 4761 counts and 6614 counts and 4293 counts
VEGFA (NM_001171626) expression, Rep 1-3: 6586 counts and 9874 counts and 6349 counts
GDNF (NM_199231) expression, AVG (Tre(−) AVG 0): 751 counts
HAS1 (NM_001523) expression, AVG, second entry (Tre(−) AVG 0): 958 counts
ST6GALNAC6 (NM_013443) expression, AVG (Tre(−) AVG 2): 506 counts
ANGPTL4 (NM_139314) expression, AVG (Tre(−) AVG 4): 1759 counts
ATP6V0D2 (NM_152565) expression, AVG (Tre(−) AVG 10): 646 counts
SLC16A6 (NM_004694) expression, AVG (Tre(−) AVG 10): 1034 counts
TRH (NM_007117) expression, AVG (Tre(−) AVG 11): 515 counts
PDE4B (NM_001037339) expression, AVG (Tre(−) AVG 14): 1196 counts
NGFR (NM_002507) expression, AVG (Tre(−) AVG 16): 1370 counts
PDE4D (NM_001197222) expression, AVG (Tre(−) AVG 16): 1677 counts
SLC4A2 (NM_001199693) expression, AVG (Tre(−) AVG 16): 524 counts
HAS1 (NM_001523) expression, AVG, first entry (Tre(−) AVG 23): 1728 counts
ATF3 (NM_001030287) expression, AVG (Tre(−) AVG 26): 1207 counts
KYNU (NM_003937) expression, AVG (Tre(−) AVG 27): 862 counts
PDK4 (NM_002612) expression, AVG (Tre(−) AVG 33): 1399 counts
PDE4D (NM_001197221) expression, AVG (Tre(−) AVG 36): 1124 counts
STC1 (NM_003155) expression, AVG (Tre(−) AVG 36): 1584 counts
ATF3 (NM_001674) expression, AVG (Tre(−) AVG 37): 676 counts
BMP6 (NM_001718) expression, AVG (Tre(−) AVG 39): 1324 counts
KTN1 (NM_001079522) expression, AVG (Tre(−) AVG 40): 579 counts
SEC31A (NM_001077207) expression, AVG (Tre(−) AVG 40): 732 counts
PLOD2 (NM_000935) expression, AVG (Tre(−) AVG 42): 1258 counts
GDNF (NM_000514) expression, AVG (Tre(−) AVG 43): 786 counts
PTGS2 (NM_000963) expression, AVG (Tre(−) AVG 46): 10888 counts
PAQR5 (NM_017705) expression, AVG (Tre(−) AVG 48): 704 counts
IL11 (NM_000641) expression, AVG (Tre(−) AVG 50): 929 counts
SCG2 (NM_003469) expression, AVG (Tre(−) AVG 51): 1090 counts
PITPNC1 (NM_181671) expression, AVG (Tre(−) AVG 52): 824 counts
IGFBP1 (NM_000596) expression, AVG (Tre(−) AVG 53): 6304 counts
SLC6A15 (NM_182767) expression, AVG (Tre(−) AVG 54): 1277 counts
HSD11B1 (NM_005525) expression, AVG (Tre(−) AVG 55): 849 counts
NR4A2 (NM_006186) expression, AVG (Tre(−) AVG 55): 679 counts
PTP4A1 (NM_003463) expression, AVG (Tre(−) AVG 58): 685 counts
SIK1 (NM_173354) expression, AVG (Tre(−) AVG 58): 1183 counts
IL6 (NM_000600) expression, AVG (Tre(−) AVG 63): 6859 counts
SMOX (NM_175840) expression, AVG (Tre(−) AVG 77): 955 counts
PALLD (NM_001166110) expression, AVG (Tre(−) AVG 78): 1033 counts
DUSP1 (NM_004417) expression, AVG (Tre(−) AVG 85): 1092 counts
SAT1 (transcript variant 2, non-coding RNA) expression, AVG (Tre(−) AVG 89): 1208 counts
PRKAG2 (NM_024429) expression, AVG (Tre(−) AVG 91): 7155 counts
LIPG (NM_006033) expression, AVG (Tre(−) AVG 129): 1702 counts
IER3 (NM_003897) expression, AVG (Tre(−) AVG 132): 2974 counts
SREBF1 (NM_004176) expression, AVG (Tre(−) AVG 148): 1709 counts
IDH1 (NM_005896) expression, AVG (Tre(−) AVG 155): 2039 counts
C11orf96 (NM_001145033) expression, AVG (Tre(−) AVG 176): 2105 counts
CD55 (NM_001114752) expression, AVG (Tre(−) AVG 202): 2663 counts
GPRC5A (NM_003979) expression, AVG (Tre(−) AVG 355): 4684 counts
CD55 (NM_000574) expression, AVG (Tre(−) AVG 359): 7712 counts
VEGFA (NM_001025370) expression, AVG (Tre(−) AVG 386): 5223 counts
GDF15 (NM_004864) expression, AVG (Tre(−) AVG 421): 13505 counts
TIAM2 (NM_012454) expression, AVG (Tre(−) AVG 504): 20 counts
KIAA0930 (NM_015264) expression, AVG (Tre(−) AVG 511): 48 counts
CALD1 (NM_033140) expression, AVG (Tre(−) AVG 523): 0 counts
MBNL1 (NM_207297) expression, AVG (Tre(−) AVG 526): 46 counts
NAP1L3 (NM_004538) expression, AVG (Tre(−) AVG 538): 48 counts
